From patent US20100267713A1, “4,4-DISUBSTITUTED PIPERIDINES” (priority 2007, published 2010)

Target: T1, renin (Homo sapiens, UniProt P00797)
T1 construct: This test measures the formation of angiotensin I in human plasma; from tissue; host or cells: human plasma
T1 sequence (P00797 67-406): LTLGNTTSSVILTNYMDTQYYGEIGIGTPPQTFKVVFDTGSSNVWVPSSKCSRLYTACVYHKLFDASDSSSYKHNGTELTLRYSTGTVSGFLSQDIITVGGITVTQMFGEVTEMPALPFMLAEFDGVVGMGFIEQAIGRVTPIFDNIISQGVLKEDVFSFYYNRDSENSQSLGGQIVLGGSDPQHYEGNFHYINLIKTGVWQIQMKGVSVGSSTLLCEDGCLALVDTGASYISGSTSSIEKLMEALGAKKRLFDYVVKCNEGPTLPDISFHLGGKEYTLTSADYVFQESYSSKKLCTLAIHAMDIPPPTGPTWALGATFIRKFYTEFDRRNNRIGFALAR
Assay: formation of angiotensin I in human plasma, radioimmunoassay (Nussberger et al.)
Format: biochemical
Settings: read-out: IC50, inhibition of the formation of angiotensin I
Experimental: The effect of renin inhibitors is detected inter alia experimentally by means of in vitro tests where the reduction in the formation of angiotensin I is measured in various systems (human plasma, purified human renin together with synthetic or natural renin substrate). The following in vitro test of Nussberger et al. (1987) J. Cardiovascular Pharmacol., Vol. 9, pp. 39-44, is used inter alia. This test measures the formation of angiotensin I in human plasma. The amount of angiotensin I formed is determined in a subsequent radioimmunoassay. The effect of inhibitors on the formation of angiotensin I is tested in this system by adding various concentrations of these substances. The IC50 is defined as the concentration of the particular inhibitor which reduces the formation of angiotensin I by 50%. The compounds of the present invention show inhibitory effects in the in vitro systems at minimal concentrations of about 10^−6 to about […].

CCCc1nc(COC[C@@H](C)OCC)ccc1[C@@]1(O)CCNC[C@@H]1OCc1ccc2c(c1)N(CCCOC)CCO2 [Example 501, (3′S,4′S)-6-((R)-2-Ethoxy-propoxymethyl)-3′-[4-(3-methoxy-propyl)-3,4-dihydro-2H-benzo[1,4]oxazin-6-ylmethoxy]-2-propyl-2′,3′,5′,6′-tetrahydro-1′H-[3,4′]bipyridinyl-4′-ol]
IC50: 0.048 µM
